The target of one data set is T1, KMO mouse enzyme (Mus musculus, UniProt Q91WN4).
T1 construct: KMO enzyme prepared at Evotec from mouse liver (4-6 weeks old) via mitochondria isolation; from tissue; host or cells: mouse liver (4-6 weeks old), mitochondria isolation
Put plainly: Mouse KMO enzyme assay: L-kynurenine hydroxylation to 3OH-KYN by LC/MS. It is filed as biochemical. Conditions: compound at 10 μM; KMO from mouse liver mitochondria; read-out: INH.Mouse @ 10 μM. On the procedure: Product is quantified by multiple reaction monitoring (MRM method).
IC50's are calculated using automated fitting algorithm (A+Analysis).

Data set [1] in a line: Solubility remark made when LCMS was attempted. Conditions: solvents for LCMS. Type of data set: physicochemical.

Experimental findings from patent publication US8883785B2, “Certain kynurenine-3-monooxygenase inhibitors, pharmaceutical compositions, and methods of use thereof” (CHDI Foundation, Inc., priority 2010, dated 2014) are described below.

T1 sequence (Q91WN4 whole entry): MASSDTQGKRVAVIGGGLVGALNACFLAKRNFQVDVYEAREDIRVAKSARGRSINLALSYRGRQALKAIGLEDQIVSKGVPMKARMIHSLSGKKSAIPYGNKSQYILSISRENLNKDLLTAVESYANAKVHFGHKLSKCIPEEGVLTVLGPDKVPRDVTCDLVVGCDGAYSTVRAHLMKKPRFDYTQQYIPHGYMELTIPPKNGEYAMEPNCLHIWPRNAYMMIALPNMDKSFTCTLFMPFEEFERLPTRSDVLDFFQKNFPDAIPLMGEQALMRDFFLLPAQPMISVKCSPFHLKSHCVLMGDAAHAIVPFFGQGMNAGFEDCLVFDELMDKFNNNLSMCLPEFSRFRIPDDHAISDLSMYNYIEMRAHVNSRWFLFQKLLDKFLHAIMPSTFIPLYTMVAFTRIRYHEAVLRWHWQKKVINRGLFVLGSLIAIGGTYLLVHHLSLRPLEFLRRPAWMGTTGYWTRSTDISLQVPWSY

For `Cn1[nH]cc(-c2cc(-c3ccc(Cl)c(Cl)c3)ncn2)c1=O` [4-[6-(3,4-dichlorophenyl)pyrimidin-4-yl]-2-methyl-1H-pyrazol-3-one], the inhibition at 10 µM at KMO mouse enzyme was determined as 73.6%. The “solubility” value in data set [1] is “Compound is insuffciently souble in any acceptable solvent in order to obtain a meaningful LCMS 1H NMR (500 MHz, DMSO-d6) d ppm 8.88 (1H, s), 8.44 (1H, br.s.), 8.26 (1H, br.s.), 8.19 (1H, d), 8.06 (1H, br.s.), 7.85 (1H, d), 3.45 (3H, s)”.

With `Clc1ccc(-c2cc(-c3ncco3)ncn2)cc1Cl` [4-(3,4-Dichloro-phenyl)-6-oxazol-2-yl-pyrimidine], the inhibition at 10 µM on KMO mouse enzyme was found to be 93%.

For the compound `Cc1coc(-c2cc(-c3cccc(Cl)c3)ncn2)n1` [4-(3-chlorophenyl)-6-(4-methyl-1,3-oxazol-2-yl)pyrimidine], at KMO mouse enzyme, the inhibition at 10 µM came out at 101%.

For `Cc1noc(-c2cc(-c3cccc(Cl)c3)ncn2)n1` [4-(3-chlorophenyl)-6-(3-methyl-1,2,4-oxadiazol-5-yl)pyrimidine], the inhibition at 10 µM at KMO mouse enzyme is 91%. For the compound `Cc1ccc(-c2cc(-c3nnn[nH]3)ncn2)cc1F` [4-(3-Fluoro-4-methyl-phenyl)-6-(1H-tetrazol-5-yl)-pyrimidine], the inhibition at 10 µM on KMO mouse enzyme was 100%.

With `FC(F)(F)c1nc(-c2cc(-c3ccc(Cl)c(Cl)c3)ncn2)no1` [4-(3,4-dichlorophenyl)-6-[5-(trifluoromethyl)-1,2,4-oxadiazol-3-yl]pyrimidine], the inhibition at 10 µM at KMO mouse enzyme came out at 87%.

With `S=c1[nH]c(-c2cc(-c3ccc(Cl)c(Cl)c3)ncn2)no1` [3-[6-(3,4-dichlorophenyl)pyrimidin-4-yl]-4H-1,2,4-oxadiazole-5-thione], the inhibition at 10 µM at KMO mouse enzyme came to 102%.

`O=c1[nH]c(-c2cc(-c3ccc(OC(F)(F)F)c(Cl)c3)ncn2)no1` [3-[6-(3-Chloro-4-trifluoromethoxy-phenyl)-pyrimidin-4-yl]-4H-[1,2,4]oxadiazol-5-one]: on KMO mouse enzyme, the inhibition at 10 µM was determined as 99%. Take `Cc1nc(-c2cc(-c3ccc(Cl)c(Cl)c3)ncn2)no1` [4-(3,4-dichlorophenyl)-6-(5-methyl-1,2,4-oxadiazol-3-yl)pyrimidine]: the inhibition at 10 µM on KMO mouse enzyme is 51%. On the same count and under the same terms, the result for `Clc1cccc(-c2cc(-c3nnn[nH]3)ncn2)c1` [4-(3-chlorophenyl)-6-(1H-tetrazol-5-yl)pyrimidine] reads 103%; that for `Fc1ccc(-c2cc(-c3nnn[nH]3)ncn2)cc1F` [4-(3,4-difluorophenyl)-6-(1H-tetrazol-5-yl)pyrimidine], 101%; that for `Clc1cccc(-c2cc(-c3nnc[nH]3)ncn2)c1` [4-(3-chlorophenyl)-6-(4H-1,2,4-triazol-3-yl)pyrimidine], 102%. Same read-out and setting: the result for `O=c1[nH]c(-c2cc(-c3cncc(Cl)c3)ncn2)no1` [3-[6-(5-chloropyridin-3-yl)pyrimidin-4-yl]-4H-1,2,4-oxadiazol-5-one] reads 65.2%. In the case of `Clc1cccc(-c2cc(-c3nc4ccccc4[nH]3)ncn2)c1` [2-[6-(3-chlorophenyl)pyrimidin-4-yl]-1H-benzimidazole], the inhibition at 10 µM on KMO mouse enzyme is 102%. Same read-out and setting: the result for `O=c1[nH]c(-c2cc(-c3ccc(F)c(F)c3)ncn2)no1` [3-[6-(3,4-Difluoro-phenyl)-pyrimidin-4-yl]-4H-[1,2,4]oxadiazol-5-one] reads 100%; that for `Clc1cccc(-c2cc(-c3nc4ccc(Cl)cc4[nH]3)ncn2)c1` [6-chloro-2-[6-(3-chlorophenyl)pyrimidin-4-yl]-1H-benzimidazole], 39.1%.

Consider `Cn1nnnc1-c1cc(-c2cccc(Cl)c2)ncn1` [4-(3-chlorophenyl)-6-(1-methyltetrazol-5-yl)pyrimidine], for which the inhibition at 10 µM on KMO mouse enzyme was 65.6%. `CC(C)Oc1ccc(-c2cc(-c3nnn[nH]3)ncn2)cc1Cl` [4-(3-Chloro-4-isopropoxy-phenyl)-6-(1H-tetrazol-5-yl)-pyrimidine]: the inhibition at 10 µM at KMO mouse enzyme is 100%.

For `Fc1ccc(-c2cc(-c3nnn[nH]3)ncn2)cc1Cl` [4-(3-chloro-4-fluorophenyl)-6-(1H-tetrazol-5-yl)pyrimidine], at KMO mouse enzyme, the inhibition at 10 µM turned out to be 103%.

With `CNC(=O)c1ccc(-c2cc(-c3ccc(Cl)c(Cl)c3)ncn2)nc1` [6-[6-(3,4-dichlorophenyl)pyrimidin-4-yl]-N-methylpyridine-3-carboxamide], the inhibition at 10 µM at KMO mouse enzyme was found to be 39.1%. As to `O=c1[nH]c(-c2cc(-c3ccc(F)c(Cl)c3)ncn2)no1` [3-[6-(3-Chloro-4-fluoro-phenyl)-pyrimidin-4-yl]-4H-[1,2,4]oxadiazol-5-one], on KMO mouse enzyme, the inhibition at 10 µM worked out at 100%. As for `CC(C)Oc1ccc(-c2cc(-c3noc(=O)[nH]3)ncn2)cc1Cl` [3-[6-(3-Chloro-4-isopropoxy-phenyl)-pyrimidin-4-yl]-4H-[1,2,4]oxadiazol-5-one], at KMO mouse enzyme, the inhibition at 10 µM came out at 96%. `Cc1coc(-c2cc(-c3ccc(Cl)c(Cl)c3)ncn2)n1` [4-(3,4-dichlorophenyl)-6-(4-methyl-1,3-oxazol-2-yl)pyrimidine]: the inhibition at 10 µM at KMO mouse enzyme stood at 101%. On the same count and under the same terms, the result for `Clc1ccc(-c2cc(-c3nnc[nH]3)ncn2)cc1Cl` [4-(3,4-dichlorophenyl)-6-(4H-1,2,4-triazol-3-yl)pyrimidine] reads 100%.

On to `Cn1nnc(-c2cc(-c3cccc(Cl)c3)ncn2)n1` [4-(3-chlorophenyl)-6-(2-methyltetrazol-5-yl)pyrimidine], for which the inhibition at 10 µM at KMO mouse enzyme was determined as 91.2%. Still for that read-out and setting: the result for `O=c1[nH]c(-c2cc(-c3cccc(Cl)c3)ncn2)no1` [3-[6-(3-chlorophenyl)pyrimidin-4-yl]-4H-1,2,4-oxadiazol-5-one] reads 96.3%. With `O=c1[nH]nc(-c2cc(-c3ccc(Cl)c(Cl)c3)ncn2)[nH]1` [5-[6-(3,4-dichlorophenyl)pyrimidin-4-yl]-2,4-dihydro-1,2,4-triazol-3-one], the inhibition at 10 µM on KMO mouse enzyme was 58.1%. In addition, in data set [1], the “solubility” value is listed as “very unsoluble compound- LCMS unobtainable 1H NMR (250 MHz, DMSO-d6) d ppm 9.27-9.32 (1 H, m), 8.39- 8.47 (2 H, m), 8.17-8.25 (1 H, m), 7.76-7.85 (1 H, m)”. Regarding `FC(F)(F)c1ccn(-c2cc(-c3ccc(Cl)c(Cl)c3)ncn2)n1` [4-(3,4-dichlorophenyl)-6-[3-(trifluoromethyl)pyrazol-1-yl]pyrimidine], the inhibition at 10 µM at KMO mouse enzyme was 56.7%. Same read-out and setting: the result for `Clc1ccc(-c2cc(-c3ncc[nH]3)ncn2)cc1Cl` [4-(3,4-dichlorophenyl)-6-(1H-imidazol-2-yl)pyrimidine] reads 99%; that for `Clc1cccc(-c2cc(-c3nc4ccccc4o3)ncn2)c1` [2-[6-(3-chlorophenyl)pyrimidin-4-yl]-1,3-benzoxazole], 54.4%; that for `Cc1coc(-c2cc(-c3ccc(Cl)c(Cl)c3)nc(C)n2)n1` [4-(3,4-dichlorophenyl)-2-methyl-6-(4-methyl-1,3-oxazol-2-yl)pyrimidine], 46.8%. On the same count and under the same terms, the result for `Cc1nnc(-c2cc(-c3ccc(Cl)c(Cl)c3)ncn2)[nH]1` [4-(3,4-dichlorophenyl)-6-(5-methyl-4H-1,2,4-triazol-3-yl)pyrimidine] reads 80%.

Turning to `Clc1ccc(-c2cc(-c3nccs3)ncn2)cc1Cl` [4-(3,4-Dichloro-phenyl)-6-thiazol-2-yl-pyrimidine], the inhibition at 10 µM on KMO mouse enzyme was 48%. With `O=c1[nH]cc(-c2cc(-c3ccc(Cl)c(Cl)c3)ncn2)[nH]1` [4-[6-(3,4-dichlorophenyl)pyrimidin-4-yl]-1,3-dihydroimidazol-2-one], the inhibition at 10 µM at KMO mouse enzyme is 105%. For `Cc1ccc(-c2cc(-c3noc(=O)[nH]3)ncn2)cc1Cl` [3-[6-(3-Chloro-4-methyl-phenyl)-pyrimidin-4-yl]-4H-[1,2,4]oxadiazol-5-one], at KMO mouse enzyme, the inhibition at 10 µM was found to be 98%. Still for that read-out and setting: the result for `FC(F)(F)Oc1ccc(-c2cc(-c3nnn[nH]3)ncn2)cc1Cl` [4-(3-Chloro-4-trifluoromethoxy-phenyl)-6-(1H-tetrazol-5-yl)-pyrimidine] reads 100%; that for `Clc1ccc(-c2cc(C3=NCCN3)ncn2)cc1Cl` [4-(3,4-dichlorophenyl)-6-(4,5-dihydro-1H-imidazol-2-yl)pyrimidine], 95.5%. On the same count and under the same terms, the result for `Cc1ccc(-c2cc(-c3noc(=O)[nH]3)ncn2)cc1F` [3-[6-(3-Fluoro-4-methyl-phenyl)-pyrimidin-4-yl]-4H-[1,2,4]oxadiazol-5-one] reads 100%. On to `Cc1c[nH]c(-c2cc(-c3ccc(Cl)c(Cl)c3)ncn2)n1` [4-(3,4-dichlorophenyl)-6-(4-methyl-1H-imidazol-2-yl)pyrimidine], for which the inhibition at 10 µM on KMO mouse enzyme worked out at 92.3%. The same measure, in the same setting: the result for `Clc1ccc(-c2cc(-c3cc[nH]n3)ncn2)cc1Cl` [4-(3,4-Dichloro-phenyl)-6-(1H-pyrazol-3-yl)-pyrimidine] reads 19%; that for `Clc1ccc(-c2cc(-c3nc4ccccc4[nH]3)ncn2)cc1Cl` [2-[6-(3,4-dichlorophenyl)pyrimidin-4-yl]-1H-benzimidazole], 49.7%; that for `FC(F)(F)c1cn(-c2cc(-c3ccc(Cl)c(Cl)c3)ncn2)cn1` [4-(3,4-dichlorophenyl)-6-[4-(trifluoromethyl)imidazol-1-yl]pyrimidine], 64.4%.
